Nc1ccc(Oc2ccc(N)cc2)cc1
solubility (mole fraction)
Settings | 293.15 K | 298.15 K | 303.15 K | 308.15 K | 313.15 K | 318.15 K | 323.15 K | 328.15 K | 333.15 K
in DMAc | 0.14 | 0.144 | 0.148 | 0.152 | 0.157 | 0.164 | 0.166 | 0.177 | 0.184
in DMF | 0.113 | 0.117 | 0.12 | 0.126 | 0.132 | 0.139 | 0.146 | 0.152 | 0.161
in DMSO | 0.149 | 0.153 | 0.159 | 0.165 | 0.171 | 0.181 | 0.185 | 0.192 | 0.201

From BigSolDB 2.1
